Where a SMILES comes first, the peptide text is derived from it. Bridges are numbered along the chain shown (N, C = ends). [ ]: non-standard residue; d: D form. The star is where a group is joined. hPhe(3,5-F2-4-CF3) = N[C@@H](CCc1cc(F)c(C(F)(F)F)c(F)c1)C(=O)O; hPhe(3-Cl-4-CF3) = N[C@@H](CCc1ccc(C(F)(F)F)c(Cl)c1)C(=O)O; NPrPhe(4-CF3) = CCCN[C@@H](Cc1ccc(C(F)(F)F)cc1)C(=O)O; NMePhe(4-Me) = CN[C@@H](Cc1ccc(C)cc1)C(=O)O; NMeGly(cPent) = CN[C@H](C(=O)O)C1CCCC1; αMeCha = C[C@](N)(CC1CCCCC1)C(=O)O; NMeD = CN[C@@H](CC(=O)O)C(=O)O; Ac4c(3-oxa) = NC1(C(=O)O)COC1; NMeL = CN[C@@H](CC(C)C)C(=O)O; Morpholide = C1CN(*)CCO1; Ac5c = NC1(C(=O)O)CCCC1; Aze = O=C(O)[C@@H]1CCN1; NBuGly = CCCCNCC(=O)O; Sar = CNCC(=O)O
How the values were obtained:
[1] = tested on: human lung cancer strain NCI-H441; assay type: cell-based
How it was run: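 Readout: […] after the ATP-based reagent. Compound: serial dilutions in dimethyl sulfoxide.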

HRAS wild-type protein = HRAS wild-type protein (Homo sapiens, UniProt P01112); assay: Binding to HRAS by surface plasmon resonance (SPR), KD and KD ratio to KRAS
HRAS wild-type protein, sequence (P01112 whole entry): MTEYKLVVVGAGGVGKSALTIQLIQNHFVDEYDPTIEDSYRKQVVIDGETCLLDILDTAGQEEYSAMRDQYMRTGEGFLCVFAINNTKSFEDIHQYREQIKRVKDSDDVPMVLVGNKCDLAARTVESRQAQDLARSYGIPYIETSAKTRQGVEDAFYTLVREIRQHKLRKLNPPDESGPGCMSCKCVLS
How it was run: (§1)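 GDP-bound biotin-Avi RAS captured at ~100–300 RU, 30°C, pH 7.4 HBS containing 10 µM GDP, 10 mM MgCl2, 1 mM DTT, 0.01% Tween 20 and 4% DMSO. KD by 1:1 fitting.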

[2] = biological target: GDP-bound NRAS wild-type protein (Homo sapiens, UniProt P01111); assay: Binding to NRAS by surface plasmon resonance (SPR), KD and KD ratio to KRAS
GDP-bound NRAS wild-type protein, sequence (P01111 whole entry): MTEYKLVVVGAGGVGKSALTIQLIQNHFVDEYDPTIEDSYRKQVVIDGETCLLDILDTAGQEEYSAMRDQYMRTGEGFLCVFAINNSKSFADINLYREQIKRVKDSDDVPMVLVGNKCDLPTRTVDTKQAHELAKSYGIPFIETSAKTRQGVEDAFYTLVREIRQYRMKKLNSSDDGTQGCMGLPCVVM
How it was run: as §1

[3] = ratio of KD for HRAS wild-type protein to KD for KRAS
[4] = ratio of KD for GDP-bound NRAS wild-type protein to KD for KRAS
[5] = ratio of the KD value with respect to HRAS wild-type protein to the KD value with respect to KRAS
[6] = ratio of the KD value with respect to GDP-bound NRAS wild-type protein to the KD value with respect to KRAS

Row | Structure (SMILES) | IC50 [1] [nM] | HRAS /KRAS (HRAS wild-type protein; [3]) | NRAS /KRAS [2, 4] | HRAS /KRAS (HRAS wild-type protein; [5]) | NRAS /KRAS [2, 6] | HRAS /KRAS (HRAS wild-type protein; ratio of KD with respect to HRAS wild-type protein to KD with respect to KRAS) | NRAS /KRAS ([2]; ratio of KD with respect to GDP-bound NRAS wild-type protein to KD with respect to KRAS)
1 | CCCCN1CC(=O)N(C)[C@@H](Cc2ccc(C)cc2)C(=O)N(C)CC(=O)N[C@@H](CCc2ccc(C(F)(F)F)c(Cl)c2)C(=O)N2CCC[C@H]2C(=O)NC2(CCCC2)C(=O)N(C)[C@@H](C2CCCC2)C(=O)N(C)[C@H](C(=O)N2CCOCC2)CC(=O)N(C)[C@@H](CC(C)C)C(=O)N[C@@H]([C@@H](C)CC)C(=O)N(C)CC1=O [PP0021] ([NMeL]I[Sar][NBuGly][NMePhe(4-Me)][Sar][hPhe(3-Cl-4-CF3)]P[Ac5c][NMeGly(cPent)][NMeD]-Morpholide; lactam N-11) | 9.8 | C (A compound having a KD ratio of 0.1 or more and less than 3 is denoted as C) | C (A compound having a KD ratio of 0.1 or more and less than 3 is denoted as C) | – | – | – | –
2 | CCCN1C(=O)[C@@H]2CCN2C(=O)CN(C)C(=O)[C@H]([C@@H](C)CC)NC(=O)[C@H](CC(C)C)N(C)C(=O)C[C@@H](C(=O)N2CCOCC2)N(C)C(=O)[C@H](C2CCCC2)N(C)C(=O)[C@](C)(CC2CCCCC2)NC(=O)[C@@H]2CCCN2C(=O)[C@H](CCc2cc(F)c(C(F)(F)F)c(F)c2)NC(=O)CN(C)C(=O)[C@@H]1Cc1ccc(C(F)(F)F)cc1 [PP0796] ([NMeL]I[Sar][Aze][NPrPhe(4-CF3)][Sar][hPhe(3,5-F2-4-CF3)]P[αMeCha][NMeGly(cPent)][NMeD]-Morpholide; lactam N-11) | 438 | B (a compound having 3 or more and less than 10 is denoted as B) | C (A compound having a KD ratio of 0.1 or more and less than 3 is denoted as C) | – | – | – | –
3 | CCO[C@@H]1C[C@H]2C(=O)NC3(CCC3)C(=O)N(C)[C@@H](C3CCCC3)C(=O)N(CCC3CCCC3)[C@H](C(=O)N(C)C)CC(=O)N(C)[C@@H](CC)C(=O)N[C@@H]([C@@H](C)CC)C(=O)N(C)CC(=O)N(C)[C@H]3CCCCCN(C3=O)[C@@H](Cc3ccc(C(F)(F)F)cc3)C(=O)N(C)CC(=O)N[C@@H](CCc3cc(F)c(C(F)(F)F)c(F)c3)C(=O)N2C1 [PP0636] | 729 | – | – | A (a compound having 10 or more and less than 20 is denoted as A) | A (a compound having 10 or more and less than 20 is denoted as A) | – | –

Continued, in another order:

Row | IC50 [1] [nM] | Structure (SMILES) | HRAS /KRAS (HRAS wild-type protein; [3]) | NRAS /KRAS [2, 4] | HRAS /KRAS (HRAS wild-type protein; [5]) | NRAS /KRAS [2, 6] | HRAS /KRAS (HRAS wild-type protein; ratio of KD with respect to HRAS wild-type protein to KD with respect to KRAS) | NRAS /KRAS ([2]; ratio of KD with respect to GDP-bound NRAS wild-type protein to KD with respect to KRAS)
4 | 275 | CCO[C@@H]1C[C@H]2C(=O)NC3(CCC3)C(=O)N(C)[C@@H](C3CCCC3)C(=O)N(C)[C@H](C(=O)N(C)C)CC(=O)N(C)[C@@H](CCC(=O)N(C)C)C(=O)N[C@@H]([C@@H](C)CC)C(=O)N(C)CC(=O)N(C)[C@H]3C/C=C\CCN(C3=O)[C@@H](Cc3ccc(C(F)(F)F)cc3)C(=O)N(C)CC(=O)N[C@@H](CCc3cc(F)c(C(F)(F)F)c(F)c3)C(=O)N2C1 [PP1122] | B (a compound having 3 or more and less than 10 is denoted as B) | A (a compound having 10 or more and less than 20 is denoted as A) | – | – | – | –
5 | 44.1 | CCCN1C(=O)CN(C)C(=O)CN(C)C(=O)[C@H]([C@@H](C)CC)NC(=O)[C@H](CC(C)C)N(C)C(=O)C[C@@H](C(=O)N2CCOCC2)N(C)C(=O)[C@H](C2CCCC2)N(C)C(=O)C2(COC2)NC(=O)[C@@H]2CCCN2C(=O)[C@H](CCc2ccc(C(F)(F)F)c(Cl)c2)NC(=O)CN(C)C(=O)[C@@H]1Cc1ccc(C(F)(F)F)cc1 [PP1922] ([NMeL]I[Sar][Sar][NPrPhe(4-CF3)][Sar][hPhe(3-Cl-4-CF3)]P[Ac4c(3-oxa)][NMeGly(cPent)][NMeD]-Morpholide; lactam N-11) | – | – | C (A compound having a KD ratio of 0.1 or more and less than 3 is denoted as C) | B (a compound having 3 or more and less than 10 is denoted as B) | – | –
6 | 923 | CCCN1C(=O)CN(C)C(=O)CN(C)C(=O)[C@H]([C@@H](C)CC)NC(=O)[C@@H]2COCCCC[C@@](C)(NC(=O)[C@@H]3C[C@@H](OCC)CN3C(=O)[C@H](CCc3cc(F)c(C(F)(F)F)c(F)c3)NC(=O)CN(C)C(=O)[C@@H]1Cc1ccc(C(F)(F)F)cc1)C(=O)N(C)[C@@H](C1CCCC1)C(=O)N(C)[C@H](C(=O)N1CCOCC1)CC(=O)N2C [PP0899] | B (a compound having 3 or more and less than 10 is denoted as B) | A (a compound having 10 or more and less than 20 is denoted as A) | – | – | – | –
7 | 56.2 | CCO[C@@H]1C[C@H]2C(=O)NC3(CCC3)C(=O)N(C)[C@@H](C3CCCC3)C(=O)N(C)[C@H](C(=O)N(C)CCOC)CC(=O)N(C)[C@@H](CC)C(=O)N[C@@H]([C@@H](C)CC)C(=O)N(C)CC(=O)N(C)[C@H]3C/C=C\CCN(C3=O)[C@@H](Cc3ccc(C(F)(F)F)cc3)C(=O)N(C)CC(=O)N[C@@H](CCc3ccc4sccc4c3)C(=O)N2C1 [PP1322] | – | – | – | – | A (a compound having 10 or more and less than 20 is denoted as A) | A (a compound having 10 or more and less than 20 is denoted as A)

Reference: EP4603105A1, “PHARMACEUTICAL COMPOSITION CONTAINING CYCLIC COMPOUND HAVING SELECTIVE KRAS INHIBITORY EFFECT AGAINST HRAS AND NRAS” (CHUGAI SEIYAKU KABUSHIKI KAISHA, priority 2022, dated 2024)
